# Where “and” joins values, the source holds several entries; their conditions need not be identical. Equal entries are not always repeated. Non-standard residues stand in square brackets, D forms with d. Residues, ends and D or L forms follow the SMILES beside them. No end group written: not given here. *: point of attachment. X1 = C[C@H](O)[C@H](C(=O)*)N1CN2CCC[C@@H]2C1=O
# Tests used:
# [1] = molecular target: T1, human D-amino acid oxidase (hDAAO) (Homo sapiens, UniProt P14920); test: hDAAO activity assay (substrate test); format: biochemical; conditions: 0.2 mM D-alanine as substrate, 2 h incubation
# T1 construct: made in house; host or cells: E. coli
# T1 sequence (P14920 whole entry): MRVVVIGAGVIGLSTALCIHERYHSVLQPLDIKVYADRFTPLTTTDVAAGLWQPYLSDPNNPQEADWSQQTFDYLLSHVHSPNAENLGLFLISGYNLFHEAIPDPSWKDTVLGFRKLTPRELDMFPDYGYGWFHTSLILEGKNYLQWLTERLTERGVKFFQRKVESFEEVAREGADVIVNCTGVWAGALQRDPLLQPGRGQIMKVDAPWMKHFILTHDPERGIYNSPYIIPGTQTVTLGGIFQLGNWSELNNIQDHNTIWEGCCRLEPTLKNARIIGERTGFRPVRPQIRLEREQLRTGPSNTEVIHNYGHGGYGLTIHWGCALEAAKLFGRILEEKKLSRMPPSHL
# Method: (§1) For hDAAO activity and inhibition assays, the tested substances were incubated with 0.17 U/mL recombinant hDAAO, 0.1 U/mL horseradish peroxidase (Roche, Switzerland) and 4 µM flavin adenine dinucleotide (FAD) in 50 mM sodium phosphate buffer (pH 7.4). […] The Amplex UltraRed reagent is a fluorogenic substrate for horseradish peroxidase that reacts with the hydrogen peroxide produced by the oxidative deamination of D-amino acids to build Amplex UltroxRed, a fluorescent reaction product, which served as indicator for hDAAO activity. All enzymatic assays were conducted at room temperature in 96-well plate format using an automated liquid-handler system (epMotion 5075; Eppendorf, Hamburg, Germany). Recombinant hDAAO was overexpressed in E. coli and purified as previously reported.
# To investigate whether RD2 acts as substrate for hDAAO, the enzyme was incubated with 2.9 mM RD2, horseradish peroxidase and FAD for up to 6 h and the fluorescence signal of the Amplex UltroxRed reagent was measured (sample values). Positive control measurements using 0.2 mM D-alanine as substrate were performed in parallel. Additionally, negative control measurements without substrates were performed. The relative emission at 590 nm was determined by subtracting control measurements to sample values.
# [2] = Stability in human liver microsomes, RP-HPLC / UHPLC-ESI-QTOF-MS; format: in vitro ADME
# Method: (§2) The preparation of the media was performed as described before in Elfgen et al.[24]. Preparation of simulated gastric and intestinal fluid (SGF & SIF) was done according to the European Pharmacopoeia 7.0. Plasma samples were obtained from human blood of a volunteer donor. Pooled human liver microsomes were purchased from Sekisui XenoTech (Kansas City, USA; H1000, Lot: 0710494 and 1210270; H1500, Lot: 1210079), from Sigma-Aldrich (St. Louis, USA; M0692, Lot: SLBL1433V; M0567, Lot: SLBR2706V and SLBN7300V) and from Gibco, Thermo Fisher Scientific (Waltham, USA; HMMCPL, Lot: PL050; HMMCPM, Lot: PL039). Pooled Sprague Dawley rat liver microsomes were purchased from Sigma-Aldrich (St. Louis, USA; M9066, Lot: SLBN0707V) and from Gibco, Thermo Fisher Scientific (Waltham, USA; RTMCPL, Lot: RT053). Pooled cynomolgus monkey liver microsomes were purchased from Gibco, Thermo Fisher Scientific (Waltham, USA; MKMCPL, Lot: MK062) and from Sekisui XenoTech (Kansas City, USA; P2000, Lot: 1210334). The liver microsomes were diluted in an NADPH regenerating system (NRS).
# (§3) For the stability tests, 150 µM RD2 or L-RD2 was incubated in SGF, SIF, human plasma and human liver microsomes in triplicate at 37 °C with slight shaking for different time periods. To prevent microbial contaminations in long-term plasma incubations, 0.1% sodium azide was added to the solutions. Microsomal long-term activity was examined by incubating microsomes without peptide for up to 24 h and adding L-RD2 after 8 and 24 h. The ability to degrade L-RD2 served as indicator for their activity. For the comparison of RD2 metabolite profiles across species, 150 µM RD2 was incubated in human, rat and cynomolgus liver microsomes at 37 °C for 2 and 24 h. The peptides were extracted by precipitating the proteins with trichloroacetic acid (TCA) and subsequent centrifugation, as described previously in Elfgen et al.[24]. Peptides immediately extracted from the media and precipitated media without peptides served as controls.
# For sample analysis from stability tests (see 2.3), mobile phases were acetonitrile (A) and water (B) each supplemented with 0.15% trifluoroacetic acid (TFA) (v/v). The samples were measured isocratically at 10% solvent A for 30 min. This run conditions allowed us to detect smallest chemical changes including the differentiation between the original compound and a deamidated version (Fig. S1). RD2 and L-RD2 can potentially be deamidated at two sites, the C-terminus and the asparagine at position seven. Peak areas of the unmetabolized peptides after different incubation times were normalized to the peptides’ peak areas after direct extraction from the media. […] A chromatographic metabolite profile of L-RD2 in SIF was recorded with the same mobile phases but using a gradient from 0 to 30% solvent A in 30 min. […]
# [3] = Stability in simulated intestinal fluid (SIF), RP-HPLC; format: in vitro ADME; conditions: a few seconds
# Method: as §2
# as §3, with “The peptides were extracted by precipitating the proteins with trichloroacetic acid (TCA) and subsequent centrifugation, as described previously in Elfgen et al.[24]. Peptides immediately extracted from the media and precipitated media without peptides served as controls.” left out
# (§4) For sample analysis from stability tests (see 2.3), mobile phases were acetonitrile (A) and water (B) each supplemented with 0.15% trifluoroacetic acid (TFA) (v/v). The samples were measured isocratically at 10% solvent A for 30 min. […] A chromatographic metabolite profile of L-RD2 in SIF was recorded with the same mobile phases but using a gradient from 0 to 30% solvent A in 30 min.
# [4] = Stability in human plasma, RP-HPLC; format: in vitro ADME; conditions: female, 37 °C
# Method: as §2, §3
# For sample analysis from stability tests (see 2.3), mobile phases were acetonitrile (A) and water (B) each supplemented with 0.15% trifluoroacetic acid (TFA) (v/v). The samples were measured isocratically at 10% solvent A for 30 min. This run conditions allowed us to detect smallest chemical changes including the differentiation between the original compound and a deamidated version (Fig. S1). RD2 and L-RD2 can potentially be deamidated at two sites, the C-terminus and the asparagine at position seven. Peak areas of the unmetabolized peptides after different incubation times were normalized to the peptides’ peak areas after direct extraction from the media. […] A chromatographic metabolite profile of L-RD2 in SIF was recorded with the same mobile phases but using a gradient from 0 to 30% solvent A in 30 min.
# [5] = Stability in simulated gastric fluid (SGF), RP-HPLC; format: in vitro ADME; conditions: 37 °C, read-out: peptide degraded
# Method: as §2, with “The liver microsomes were diluted in an NADPH regenerating system (NRS).” left out
# as §4
# [6] = Comparison of RD2 metabolite profiles across species: cynomolgus liver microsomes; format: in vitro ADME, cynomolgus monkey; conditions: cynomolgus microsome batches, LC-MS
# Method: as §2
# as §3, with “The peptides were extracted by precipitating the proteins with trichloroacetic acid (TCA) and subsequent centrifugation, as described previously in Elfgen et al.[24]. Peptides immediately extracted from the media and precipitated media without peptides served as controls.” left out
# (§5) For the comparison of RD2 metabolite profiles across species (see 2.3), mobile phases were acetonitrile (A) and water (B) each supplemented with 0.1% TFA. […] The amount of the purified HSM-3 was calculated based on a calibration curve of 10 to 100 µM RD2 extracted from human liver microsomes.
# [7] = Comparison of RD2 metabolite profiles across species: human liver microsomes; format: in vitro ADME
# Method: as §2, §3
# For the comparison of RD2 metabolite profiles across species (see 2.3), mobile phases were acetonitrile (A) and water (B) each supplemented with 0.1% TFA. The gradient ran from 0 to 100% solvent A and is described in detail in Table S1. The chromatographic RD2 metabolite profiles were screened for potential human-specific metabolites. RD2 and the major RD2 metabolite present after 24 h of incubation in human liver microsome batches 7 and 8, HSM-3, were purified by RP-HPLC. Mobile phases were acetonitrile (A) and water (B) each supplemented with 0.15% TFA. The samples were separated isocratically at 10% solvent A for 30 min. RD2 as well as HSM-3 were collected and the samples were freeze-dried subsequently. The amount of the purified HSM-3 was calculated based on a calibration curve of 10 to 100 µM RD2 extracted from human liver microsomes.
# [8] = Stability of purified HSM-3 stored in solution (MALDI-MS, UHPLC-ESI-QTOF-MS); format: physicochemical; conditions: stored in solution at low temperatures
# MTT cell viability assay = format: cell-based, rat; conditions: cell viability
# Method: (§6) Rat PC12 (pheochromocytoma) cells (Leibniz Institute DSMZ, Braunschweig, Germany) were cultivated in Dulbecco’s Modified Eagle Medium (DMEM) supplemented with 10% fetal bovine serum, 5% horse serum and 1% penicillin-streptomycin. 10,000 cells per well were seeded on collagen A-coated 96-well plates (Thermo Fisher Scientific, Waltham, USA) and incubated in a 95% humidified atmosphere with 5% CO2 at 37 °C for 24 h. Samples with untreated RD2 and RD2 or HSM-3 purified from human liver microsomes (see 2.8) in 10 mM sodium phosphate buffer (pH 7.4) were prepared. Buffer without peptides and Triton X-100 (cytotoxic compound) served as controls. The samples were added to the PC12 cells in quadruple and incubated in 95% humidified atmosphere with 5% CO2 at 37 °C for 24 h. Final concentrations were 2 µM untreated RD2, purified RD2, purified HSM-3 and 0.125% Triton X-100. Cell viability was then measured using the Cell Proliferation Kit I (MTT) (Roche, Basel, Switzerland) according to the manufacturer’s instruction. The final absorbance of the formazan product was determined as the absorbance at 570 nm subtracted by the absorbance at 660 nm. All results were normalized to cells that were treated with buffer only. The experiments were performed in triplicate.
# [9] = Comparison of RD2 metabolite profiles across species: rat liver microsomes; format: in vitro ADME; conditions: rat microsome batches, LC-MS
# Method: as §2
# as §3, with “The peptides were extracted by precipitating the proteins with trichloroacetic acid (TCA) and subsequent centrifugation, as described previously in Elfgen et al.[24]. Peptides immediately extracted from the media and precipitated media without peptides served as controls.” left out
# as §5
# [10] = tested on: Rat PC12 (pheochromocytoma) cells; test: MTT cell viability assay; format: cell-based; conditions: 0.125% Triton X-100, PC12 cells, 24 h, MTT
# Method: as §6
# [11] = molecular target: T1, human D-amino acid oxidase (hDAAO); test: hDAAO inhibition assay; format: biochemical; conditions: 7.5 mM D-serine, 30 min
# Method: as §1
# To examined whether RD2 inhibits hDAAO activity, the enzyme was incubated with 7.5 mM D-serine alone and together with 0 to 625 µM RD2 or sodium benzoate (a known hDAAO inhibitor)[30], horseradish peroxidase and FAD for 30 min and the fluorescence signal of Amplex UltroxRed was recorded. hDAAO residual activity in the presence of different concentrations of RD2 or sodium benzoate was expressed relatively to the values recorded in the absence of ligands (set as 100% activity). The data were fit to a four-parameter equation to determine the curve top, bottom, IC50 and Hill slope.
# CYP1A = molecular target: T2, CYP1A (Homo sapiens, UniProt P05177); test: CYP isoform inhibition in human liver microsomes (Cyprotex); conditions: human, human liver microsomes, probe ethoxyresorufin (0.5 µM)
# T2 sequence (P05177 2-516): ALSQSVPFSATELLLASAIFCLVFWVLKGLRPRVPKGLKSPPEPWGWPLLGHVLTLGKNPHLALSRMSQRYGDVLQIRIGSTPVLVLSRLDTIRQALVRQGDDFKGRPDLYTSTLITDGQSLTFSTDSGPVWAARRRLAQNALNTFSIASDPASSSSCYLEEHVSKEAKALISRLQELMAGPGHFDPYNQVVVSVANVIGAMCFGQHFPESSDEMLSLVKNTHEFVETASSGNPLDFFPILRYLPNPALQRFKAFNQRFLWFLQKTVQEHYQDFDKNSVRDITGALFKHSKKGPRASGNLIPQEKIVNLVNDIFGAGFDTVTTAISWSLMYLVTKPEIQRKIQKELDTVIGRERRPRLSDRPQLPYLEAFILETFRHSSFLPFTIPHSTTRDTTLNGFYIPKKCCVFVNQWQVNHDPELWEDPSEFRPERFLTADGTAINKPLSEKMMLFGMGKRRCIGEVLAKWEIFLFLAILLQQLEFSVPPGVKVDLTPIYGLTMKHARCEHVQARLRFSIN
# Method: The experiments were performed by Cyprotex. […] The reactions were terminated by methanol and the generated metabolites were monitored by LC-MS/MS or fluorescence. […] All assays were performed sevenfold. […] For all other substrates, the termination plates were centrifuged at 2,500 rpm and 4 °C for 30 min and aliquots of the supernatants were combined and transferred to fresh 96-well plates. Formic acid in deionized water (final concentration 0.1%) containing internal standard was added to the supernatants prior to cassette analysis by LC-MS/MS. A decrease in the formation of the metabolite compared to the vehicle control was used to calculate the IC50 values.
compound,measurement,setting,value
C[C@@H](N)C(=O)O [D-alanine],recorded emission at 590 nm,[1],61125 ± 2120 AU
"PTLHTHNRRRRR-NH2 [L-RD2, reference compound]",deamidation in human liver microsomes,[2]; UHPLC-ESI-QTOF-MS,increasingly metabolized to the one-fold deamidated species
same,"metabolised at 0.5 h, 150 µM","[2]; pooled human liver microsomes, 150 µM, 37 °C, within 30 min, read-out: peptide degraded",87 ± 1%
same,metabolization in SIF,[3]; 150 µM,completely metabolized within a few seconds
same,"metabolised at 24 h, 150 µM","[4]; 150 µM, within one day, read-out: peptide degraded",92 ± 4%
same,half-life at 150 µM,[4]; read-out: half-life (first order kinetics fit) (converted),2 h
same,"metabolised at 24 h, 150 µM",[5],23 ± 4%
KLVFFRRRRRR-NH2,detection of the peptide after incubation in SIF,[3],could not be detected
CC(C)C[C@@H](NC(=O)[C@@H]([C@H](C)O)N1CN2CCC[C@@H]2C1=O)C(=O)N[C@H](Cc1c[nH]cn1)C(=O)N[C@@H](C(=O)N[C@H](Cc1c[nH]cn1)C(=O)N[C@H](CC(N)=O)C(=O)N[C@H](CCCNC(=N)N)C(=O)N[C@H](CCCNC(=N)N)C(=O)N[C@H](CCCNC(=N)N)C(=O)N[C@H](CCCNC(=N)N)C(=O)N[C@H](CCCNC(=N)N)C(N)=O)[C@H](C)O [HSM-3] (X1-[dL][dH][dT][dH][dN][dR][dR][dR][dR][dR]-NH2; C-terminus assumed),detection of HSM-3 after incubation of RD2,[6],not detectable
same,metabolite relative to the parent compound,"[7]; human microsome batches 7 and 8, 2 h",1% and 5%
same,metabolite relative to the parent compound,"[7]; human microsome batches 7 and 8, 24 h",31% and 52%
same,detection of HSM-3 after incubation of RD2,"[7]; other six human microsome batches, LC-MS",not detectable
same,stability of purified HSM-3 in solution,[8],instable and reacted back to RD2
same,viability at 2 µM,MTT cell viability assay,99 ± 3%
same,detection of HSM-3 after incubation of RD2,[9],not detectable
Triton X-100 [reference compound],cell viability,[10],14 ± 1%
O=C([O-])c1ccccc1.[Na+] [sodium benzoate],decrease in hDAAO activity,[11]; 625 µM,92.8 ± 0.1% and 93 ± 0.1%
same,IC50,[11]; read-out: IC50 hDAAO (four-parameter fit),7 µM
"O=c1cc(-c2ccccc2)oc2c1ccc1ccccc12 [Alpha-naphthoflavone, reference compound]",IC50,CYP1A,0.0781 µM
